Data set [1] relates to RAW264.7. Nature of the data set: Antiinflammatory activity in mouse RAW264.7 cells assessed as inhibition of LPS-induced NO production incubated for 1 hr prior to LPS-challenge measured after 24 hrs by Greiss assay. Format: functional, cell-based.
Data set [2] deals with RAW264.7. The data set is described as follows: Cytotoxicity against mouse RAW264.7 cells assessed as cell viability at 100 uM. Format: cell-based. The settings on record: raw264.7, 100 µM.
For data set [3], the system named is RAW264.7. The data set is described as follows: Antiinflammatory activity in mouse RAW264.7 cells assessed as inhibition of LPS-induced NO production at 100 uM incubated for 1 hr prior to LPS-challenge measured after 24 hrs by Greiss assay. Format: functional.

The term IC50 denotes the concentration needed to halve the response being measured. The inhibition is the relative decrease from the control value, in per cent.

For `CO[C@H](c1ccc(C=O)n1CCc1ccc(O)cc1)[C@H](O)CO`, in data set [1], the IC50 turned out to be 30.1 µM. Besides, the Activity result in data set [2] is “Non-toxic”.

Regarding `CO[C@@H](c1ccc(C=O)n1CCc1ccc(O)cc1)[C@H](O)CO`, the IC50 in data set [1] is 30.1 µM. Besides, in data set [2], the Activity entry is reported as “Non-toxic”.

For the compound `CC(=O)NCCCCCn1cccc1C=O`, the IC50 in data set [1] was determined as 54.9 µM. Also, in data set [2], the Activity result is “Non-toxic”.

Consider `O=Cc1ccc(CO)n1CCc1ccc(O)cc1`, for which the concentration for half-maximal inhibition (IC50) in data set [1] was determined as 58.8 µM. The Activity entry in data set [2] is given as “Non-toxic”.

On to `O=c1[nH]cnc2c1-c1cccn1CC2`, for which the inhibition at 100 µM in data set [3] was below 20%. The Activity entry in data set [2] is recorded as “Non-toxic”.

Take `C[C@H]1/C=C\C[C@H]2[C@@H](CC[C@@H]2O)CC(=O)OC[C@H]2O[C@@H](O1)[C@H](O)[C@@H](O)[C@@H]2O`: the IC50 in data set [1] was found to be 61.4 µM. The Activity entry in data set [2] is “Non-toxic”.

Turning to `O=Cc1ccc([C@H](O)[C@H](O)CO)n1CCc1ccc(O)cc1` (relative stereo), the IC50 in data set [1] was 97.8 µM. Also, in data set [2], the Activity entry is reported as “Non-toxic”.

On to `O=Cc1ccc([C@H](O)[C@H](O)CO)n1CCc1c[nH]c2ccccc12` (relative stereo), for which the IC50 in data set [1] stood at 60.7 µM. Also, in data set [2], the Activity entry is recorded as “Non-toxic”.

Consider `COC(=O)[C@@H](N)CCCNC(=N)N[N+](=O)[O-]` [L-NAME], for which the IC50 in data set [1] turned out to be 53.6 µM.

Values taken from ChEMBL document CHEMBL3351990, “Jiangrines A-F and jiangolide from an actinobacterium, Jiangella gansuensis” (J Nat Prod, 2014).
